Structures can show the parent of a compound that is named as a salt.
These compounds were tested against T1, human CGT (ceramide galactosyltransferase), CHO/CGT lysate (Homo sapiens, UniProt Q16880) (assay: CGT enzyme assay, LC-MS/MS readout (Table 1 ranges without asterisk)). Settings: LC-MS/MS method (range without asterisk).
T1 construct: Full-length human CGT cDNA was cloned into the BamH1/Xho1 site of pcDNA3.1 (+); expressed in transfected cells; host or cells: Chinese hamster ovary (CHO) cells; lysate prepared with M-PER
T1 sequence (Q16880 21-541): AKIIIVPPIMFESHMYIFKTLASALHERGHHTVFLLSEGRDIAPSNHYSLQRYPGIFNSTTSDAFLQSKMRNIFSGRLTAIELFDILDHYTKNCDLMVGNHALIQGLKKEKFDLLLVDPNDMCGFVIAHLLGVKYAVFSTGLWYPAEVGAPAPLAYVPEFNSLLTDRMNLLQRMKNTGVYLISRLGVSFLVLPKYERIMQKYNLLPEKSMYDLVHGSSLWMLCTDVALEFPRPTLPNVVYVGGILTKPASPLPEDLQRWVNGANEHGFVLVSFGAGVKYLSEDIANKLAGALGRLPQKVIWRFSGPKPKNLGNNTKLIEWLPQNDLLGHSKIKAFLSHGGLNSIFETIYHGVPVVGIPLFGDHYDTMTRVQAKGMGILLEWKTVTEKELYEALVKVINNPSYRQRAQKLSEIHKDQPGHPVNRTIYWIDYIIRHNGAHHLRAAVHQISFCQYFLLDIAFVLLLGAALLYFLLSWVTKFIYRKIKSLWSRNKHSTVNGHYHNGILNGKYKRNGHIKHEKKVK
Format: biochemical
Procedure: Full-length human CGT cDNA was cloned into the BamH1/Xho1 site of pcDNA3.1 (+) mammalian expression vector (V90-20, Invitrogen, Carlsbad, Calif.) and the plasmid was transfected into Chinese hamster ovary (CHO) cells. Lysate was prepared using M-PER (Mammalian Protein Extraction Reagent, ThermoFisher Scientific, Grand Island, N.Y.) in the presence of a protease inhibitor cocktail (P8340, Sigma, Saint Louis, Mo.). Each 100 mm dish (100% confluent, approximately 1×10^7 cells) was lysed with 250 μL of M-PER containing protease inhibitors. Protein concentration was determined using a Pierce BCA protein assay kit (ThermoFisher Scientific). Four micrograms of CHO/CGT lysate was incubated with various concentrations of a compound (0.001 μM-50 μM) in 10 mM HEPES (pH 7.2) containing 35 μM dioleoylphosphatidylcholine, 5 mM MgCl2, 5 mM MnCl2, 1% BSA, 15 mM KCl, 1 mM EGTA, 8 mM CHAPS, 10 μM C6-NBD-dihydro-ceramide and 17.5 μM UDP-galactose in a final reaction volume of 20 μL at 37° C. for 1 hour. The final concentration of DMSO was 0.5% in both compound-treated and mock-treated samples. Tween 80 (0.01%) was optionally added to the reaction mixture to help solubilize the compounds. Each individual reaction was diluted with 80 μL of methanol:acetronitrile (1:3) containing 5 μM N-docdecanoyl-NBD-galactosylceramide (internal standard) to stop the reaction. 200 μL H2O:acetonitile (1:1) was added to precipitate the protein. After sufficient mixing, the plates were centrifuged at 2469 g for 38 minutes, 200 μL of supernatant was transferred to a LC/MS 96-deep well plate and a second spin was performed at 2469 g for 10 minutes. The final supernatant was injected in triplicate for RapidFire/MS/MS analysis.
An alternative LC-MS/MS based method was also used. For the LC-MS/MS readout, the CGT assay was identical to the one described above except for the following: […] was used as the CGT enzyme source, C12:0 (2R—OH) ceramide was used as the ceramide substrate and 0.3 μM Cl2 ceramide was used as the internal standard. Tween 80 was not present in the reaction mixture. The final supernatant was injected for LC-MS/MS analysis.
Quantitative analysis using the LC-MS/MS method: The quantitative analysis of C12:0 (2R—OH) ceramide and C12:0 (2R—OH) galactosylceramide by LC-MS/MS was performed on a Shimadzu ultra-fast liquid chromatography (Shimadzu, Japan) coupled with API 4000 mass spectrometer (Applied Biosystems, Concord, Ontario, Canada). Analyst 1.5 software packages (Applied Biosystems) were used to control the LC-MS/MS system, as well as for data acquisition and processing. 10 μL of sample was loaded onto a Luna C18 column (50 mm×2.0 mm, I.D. 3 μm, 100A) (Phenomenex, USA) for chromatographic separation. Mobile phase A consisted of HPLC grade water with 0.1% formic acid (v/v) and mobile phase B consisted of acetonitrile supplemented with 0.1% formic acid (v/v). The separation was achieved using the following gradient program at a flow rate of 0.8 mL/min: the initial mobile phase was 70% B, which was increased in a linear fashion to 95% B in 1.50 min, and then maintained at 95% B until 3.50 min. The mobile phase was then reset to 70% B within 0.01 min, and maintained until 4.50 min. The total run time was 4.50 min. The MS/MS detection was performed in ESI positive mode. The mass transition selected for quantification was m/z 498.5-264.3 for C12:0 (2R—OH) ceramide under the collision energy of 38.8 V, and the mass transition of C12:0 (2R—OH) galactosylceramide was m/z 660.6-264.5 under the collision energy of 51 V. The mass transition of Cl2 ceramide which was used as internal standard was m/z 482.4-264.3 under the collision energy of 33V. Compound IC50 values were calculated using a protocol identical to the one described for the RapidFire method (see Table 1, where data ranges without an asterix correspond to analysis using the LC-MS/MS method).
Using the above CGT enzyme and CGT cellular assays, the compounds of Table 1 were tested. […]

**Q.** For `CC(C)Oc1ccc2cc(S(=O)(=O)N[C@H](C(=O)N3CCC(N)CC3)C(F)(F)c3ccc(Br)cc3)ccc2c1` [Compound 27-1, (R)—N-(3-(4-aminopiperidin-1-yl)-1-(4-bromophenyl)-1,1-difluoro-3-oxopropan-2-yl)-6-isopropoxynaphthalene-2-sulfonamide trifluoroacetate], which IC50 is on record?
**A.** The IC50 was 1 to 10 µM.

**Q.** How did the IC50 turn out when `NC1CC2CCC(C1)N2C(=O)C(NS(=O)(=O)c1ccc(-c2ccc(F)cc2)nc1)C(F)(F)c1ccc(Br)cc1` (stereo not shown) [Compound 199, N-(3-(3-amino-8-azabicyclo[3.2.1]octan-8-yl)-1-(4-bromophenyl)-1,1-difluoro-3-oxopropan-2-yl)-6-(4-fluorophenyl)pyridine-3-sulfonamide] was run?
**A.** Its IC50 is 30 to 100 µM.

**Q.** With `CC(C)Oc1ccc2cc(S(=O)(=O)N[C@@H](C(=O)N3CCC(N)CC3)C(F)(F)c3ccc(Br)cc3)ccc2c1Br` [Compound 119-2, (S)—N-(3-(4-aminopiperidin-1-yl)-1-(4-bromophenyl)-1,1-difluoro-3-oxopropan-2-yl)-5-bromo-6-isopropoxynaphthalene-2-sulfonamide] as the compound, how does the IC50 read?
**A.** The IC50 was 10 to 30 µM.

**Q.** For `CC(C)Oc1ccc2cc([C@H](O)C(=O)N[C@@H](C(=O)N3C4CCC3CC(N)C4)C(F)(F)c3ccc(Br)cc3)ccc2c1` (stereo partly drawn) [Compound 19-6, (2S)—N-((2S)-3-(3-amino-8-azabicyclo[3.2.1]octan-8-yl)-1-(4-bromophenyl)-1,1-difluoro-3-oxopropan-2-yl)-2-hydroxy-2-(6-isopropoxynaphthalen-2-yl)acetamide trifluoroacetate], which IC50 is on record?
**A.** The IC50 was 30 to 100 µM.

**Q.** With `NC1CC2CCC(C1)N2C(=O)[C@H](NS(=O)(=O)c1ccc2cc(OCc3ccccc3)ccc2c1)C(F)(F)c1ccc(Br)cc1` (stereo partly drawn) [Compound 24-2, N-((2S)-3-(3-amino-8-azabicyclo[3.2.1]octan-8-yl)-1-(4-bromophenyl)-1,1-difluoro-3-oxopropan-2-yl)-6-(benzyloxy)naphthalene-2-sulfonamide] as the compound, how does the IC50 read?
**A.** Its IC50 is 30 to 100 µM.

**Q.** Which IC50 does the source give for `CCCCOc1ccc2cc(S(=O)(=O)N[C@@H](C(=O)N3C4CCC3CC(N)C4)C(F)(F)c3ccc(Br)cc3)ccc2c1` (stereo partly drawn) [Compound 6-2, N-((2S)-3-(3-amino-8-azabicyclo[3.2.1]octan-8-yl)-1-(4-bromophenyl)-1,1-difluoro-3-oxopropan-2-yl)-6-butoxynaphthalene-2-sulfonamide trifluoroacetate] here?
**A.** The IC50 was 30 to 100 µM.

**Q.** For `NC1CC2CCC(C1)N2C(=O)[C@H](NS(=O)(=O)c1ccc(Oc2ccc(F)cc2)cc1)C(F)(F)c1ccc(Br)cc1` (stereo partly drawn) [Compound 25-2, N-((2S)-3-(3-amino-8-azabicyclo[3.2.1]octan-8-yl)-1-(4-bromophenyl)-1,1-difluoro-3-oxopropan-2-yl)-4-(4-fluorophenoxy) benzenesulfonamide trifluoroacetate], which IC50 is on record?
**A.** The IC50 was 30 to 100 µM.

**Q.** How did the IC50 turn out when `CC[C@H](C)Oc1ccc2cc(S(=O)(=O)N[C@H](C(=O)N3C4CCC3CC(N)C4)C(F)(F)c3ccc(Br)cc3)ccc2c1` (stereo partly drawn) [Compound 13-3, N-((2R)-3-(3-amino-8-azabicyclo[3.2.1]octan-8-yl)-1-(4-bromophenyl)-1,1-difluoro-3-oxopropan-2-yl)-6-((S)-sec-butoxy)naphthalene-2-sulfonamide] was run?
**A.** The IC50 was 1 to 10 µM.

**Q.** `CC(C)Oc1ccc2cc([C@H](O)C(=O)N[C@H](C(=O)N3C4CCC3CC(N)C4)C(F)(F)c3ccc(Br)cc3)ccc2c1` (stereo partly drawn) [Compound 19-3, (2S)—N-((2R)-3-(3-amino-8-azabicyclo[3.2.1]octan-8-yl)-1-(4-bromophenyl)-1,1-difluoro-3-oxopropan-2-yl)-2-hydroxy-2-(6-isopropoxynaphthalen-2-yl)acetamide trifluoroacetate] was tested. Which IC50 did it give?
**A.** Its IC50 is 1 to 10 µM.

**Q.** `CC[C@@H](C)Oc1ccc2cc(S(=O)(=O)N[C@H](C(=O)N3C4CCC3CC(N)C4)C(F)(F)c3ccc(Br)cc3)ccc2c1` (stereo partly drawn) [Compound 13-1, N-((2R)-3-(3-amino-8-azabicyclo[3.2.1]octan-8-yl)-1-(4-bromophenyl)-1,1-difluoro-3-oxopropan-2-yl)-6-((R)-sec-butoxy)naphthalene-2-sulfonamide] was tested. Which IC50 did it give?
**A.** Its IC50 is 1 to 10 µM.

**Q.** `CC(C)COc1ccc2cc(S(=O)(=O)N[C@H](C(=O)N3C4CCC3CC(N)C4)C(F)(F)c3ccc(Br)cc3)ccc2c1` (stereo partly drawn) [Compound 7-1, N-((2R)-3-(3-amino-8-azabicyclo[3.2.1]octan-8-yl)-1-(4-bromophenyl)-1,1-difluoro-3-oxopropan-2-yl)-6-isobutoxynaphthalene-2-sulfonamide] was tested. Which IC50 did it give?
**A.** The IC50 was 1 to 10 µM.

**Q.** For `NC1CC2CCC(C1)N2C(=O)[C@H](NS(=O)(=O)c1cccc(OCc2ccc(F)cc2)c1)C(F)(F)c1ccc(Br)cc1` (stereo partly drawn) [Compound 17-2, N-((2S)-3-(3-amino-8-azabicyclo[3.2.1]octan-8-yl)-1-(4-bromophenyl)-1,1-difluoro-3-oxopropan-2-yl)-3-((4-fluorobenzyl)oxy) benzenesulfonamide trifluoroacetate], which IC50 is on record?
**A.** The IC50 was 30 to 100 µM.

**Q.** With `CCCCCCOc1ccc(S(=O)(=O)N[C@@H](C(=O)N2C3CCC2CC(N)C3)C(F)(F)c2ccc(Br)cc2)cc1` (stereo partly drawn) [Compound 23-2, N-((2S)-3-(3-amino-8-azabicyclo[3.2.1]octan-8-yl)-1-(4-bromophenyl)-1,1-difluoro-3-oxopropan-2-yl)-4-(hexyloxy)benzenesulfonamide] as the compound, how does the IC50 read?
**A.** Its IC50 is 30 to 100 µM.

**Q.** For `CCC(CC)COc1ccc(S(=O)(=O)N[C@H](C(=O)N2C3CCC2CC(N)C3)C(F)(F)c2ccc(Br)cc2)cc1` (stereo partly drawn) [Compound 2-1, N-((2R)-3-(3-amino-8-azabicyclo[3.2.1]octan-8-yl)-1-(4-bromophenyl)-1,1-difluoro-3-oxopropan-2-yl)-4-(2-ethylbutoxy)benzenesulfonamide], which IC50 is on record?
**A.** Its IC50 is 1 to 10 µM.

**Q.** For `NC1CC2CCC(C1)N2C(=O)[C@@H](NS(=O)(=O)c1ccc(Oc2ccc(Cl)cn2)cc1)C(F)(F)c1ccc(Br)cc1` (stereo partly drawn) [Compound 18-1, N-((2R)-3-(3-amino-8-azabicyclo[3.2.1]octan-8-yl)-1-(4-bromophenyl)-1,1-difluoro-3-oxopropan-2-yl)-4-((5-chloropyridin-2-yl)oxy)benzenesulfonamide trifluoroacetate], which IC50 is on record?
**A.** The IC50 was 10 to 30 µM.

**Q.** For `CC(C)Oc1ccc2cc(S(=O)(=O)N[C@@H](C(=O)N3C4CCC3CC(N(C)C)C4)C(F)(F)c3ccc(Br)cc3)ccc2c1` (stereo partly drawn) [Compound 21-2, N-((2S)-1-(4-bromophenyl)-3-(3-(dimethylamino)-8-azabicyclo[3.2.1]octan-8-yl)-1,1-difluoro-3-oxopropan-2-yl)-6-isopropoxy naphthalene-2-sulfonamide], which IC50 is on record?
**A.** The IC50 was 30 to 100 µM.
